The record followed here is patent US20120178765A1, “NOVEL GLUCOKINASE ACTIVATORS AND PROCESSES FOR THE PREPARATION THEREOF” (YUHAN CORPORATION, priority 2009, published 2012).

The test deals with T1, Glucokinase (Homo sapiens, UniProt P35557).
T1 construct: purchased ProteinOne Inc
T1 sequence (P35557 1-465): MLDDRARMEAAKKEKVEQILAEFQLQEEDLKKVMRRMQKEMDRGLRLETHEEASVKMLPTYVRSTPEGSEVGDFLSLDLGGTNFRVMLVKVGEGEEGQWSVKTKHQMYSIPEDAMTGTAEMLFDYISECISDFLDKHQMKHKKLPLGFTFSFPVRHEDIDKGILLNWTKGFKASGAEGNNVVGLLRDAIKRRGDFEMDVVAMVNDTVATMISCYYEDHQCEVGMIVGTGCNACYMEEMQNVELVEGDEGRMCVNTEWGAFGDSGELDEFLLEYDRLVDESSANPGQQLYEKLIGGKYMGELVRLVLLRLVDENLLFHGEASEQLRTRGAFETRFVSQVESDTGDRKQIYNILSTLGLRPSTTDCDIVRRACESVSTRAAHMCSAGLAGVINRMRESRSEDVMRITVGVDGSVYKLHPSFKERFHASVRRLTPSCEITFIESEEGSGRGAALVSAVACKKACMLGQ
Kind of test: Glucokinase activation assay (NADPH absorbance at 340 nm). Type of test: biochemical. Particulars: glucokinase (ProteinOne Inc.), 5 mM D(+)-glucose, 24° C., 90 minutes. An outline of the steps:
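Glucokinase (100 ng/uL) coupled to G6PDH in 25 mM HEPES pH 7 with 5 mM D(+)-glucose, 1 mM ATP, 1 mM NADP; compounds added.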

pEC50: −log10 of the molar value.

“3-[2-(2-fluorophenyl)ethyl]-5-(2-methoxy-(1S)-methyl-ethoxy)-N-(thiazol-2-yl)-benzamide [Example 84]” had a pEC50 of 7.38.

A word on the pEC50: it is the EC50 on a negative log10 scale, so that one unit is a factor of ten. Read a low pEC50 as a high EC50.
